Ends that are not written are not given here.
Tests used:
[1] = target: T1, Ca2/CaM12’ (Xenopus laevis, UniProt P0DP33, D21A/D23A/D25A/D57A/D59A/E32Q/E68Q/N61A); assay: ITC of Ca2/CaM12’ binding to IQ peptides; details: 27 °C; for n-value (stoichiometry) / ΔH: SD from three independent trials
T1 construct: made in house; host or cells: E. coli BL21(DE3) Codon Plus, pET11d

[2] = target: fluorescein-labeled CaV1.2 IQ peptide Y1657D (rat); assay: fluorescence polarisation; fluorescein-labeled peptide (100 nM) titrated with apoCaM in Ca2+-free buffer: 20 mM Tris, pH 7.4, 100 mM KCl, 1 mM MgCl2, 2.0 mM EGTA

| n-value (stoichiometry) [1] | ΔH [1] [kcal/mol] | binding to Ca2/CaM12’ compared to IQ^WT [1] | Compound | Kd [2] [µM] |
| --- | --- | --- | --- | --- |
| – | – | weaker binding | CC[C@H](C)[C@H](NC(=O)[C@H](CC(C)C)NC(=O)[C@H](Cc1ccccc1)NC(=O)[C@@H](NC(=O)[C@H](C)NC(=O)[C@H](Cc1ccc(O)cc1)NC(=O)[C@H](Cc1ccccc1)NC(=O)[C@H](CCCCN)NC(=O)CNC(=O)[C@@H](NC(=O)[C@@H](N)[C@@H](C)O)C(C)C)[C@@H](C)O)C(=O)N[C@@H](CCC(N)=O)C(=O)N[C@@H](CCC(=O)O)C(=O)N[C@@H](CC(=O)O)C(=O)N[C@@H](Cc1ccccc1)C(=O)N[C@@H](CCCNC(=N)N)C(=O)N[C@@H](CCCCN)C(=O)N[C@@H](Cc1ccccc1)C(=O)N[C@@H](CCCCN)C(=O)N[C@@H](CCCCN)C(=O)N[C@@H](CCCNC(=N)N)C(=O)O [IQ^Y1657D] | – |
| 0.88 ± 0.25 | -9.7 ± 0.2 | weaker binding | CC[C@H](C)[C@H](NC(=O)[C@H](CC(C)C)NC(=O)[C@H](Cc1ccccc1)NC(=O)[C@@H](NC(=O)[C@H](C)NC(=O)[C@H](C)NC(=O)[C@H](Cc1ccccc1)NC(=O)[C@H](CCCCN)NC(=O)CNC(=O)[C@@H](NC(=O)[C@@H](N)[C@@H](C)O)C(C)C)[C@@H](C)O)C(=O)N[C@@H](CCC(N)=O)C(=O)N[C@@H](CCC(=O)O)C(=O)N[C@@H](Cc1ccc(O)cc1)C(=O)N[C@@H](Cc1ccccc1)C(=O)N[C@@H](CCCNC(=N)N)C(=O)N[C@@H](CCCCN)C(=O)N[C@@H](Cc1ccccc1)C(=O)N[C@@H](CCCCN)C(=O)N[C@@H](CCCCN)C(=O)N[C@@H](CCCNC(=N)N)C(=O)O [IQ^Y1649A] | – |

Second part, the compound before the results:

| Compound | n-value (stoichiometry) [1] | ΔH [1] [kcal/mol] | binding to Ca2/CaM12’ compared to IQ^WT [1] | Kd [2] [µM] |
| --- | --- | --- | --- | --- |
| TVGKFYATFLIQEYARKFKKR [IQ^F1658A] | 1.0 ± 0.25 | -9.5 ± 0.2 | – | – |
| CC[C@H](C)[C@H](NC(=O)[C@H](CC(C)C)NC(=O)[C@H](Cc1ccccc1)NC(=O)[C@@H](NC(=O)[C@H](C)NC(=O)[C@H](Cc1ccc(O)cc1)NC(=O)[C@H](Cc1ccccc1)NC(=O)[C@H](CCCCN)NC(=O)CNC(=O)[C@@H](NC(=O)[C@@H](N)[C@@H](C)O)C(C)C)[C@@H](C)O)C(=O)N[C@@H](CCC(N)=O)C(=O)N[C@@H](CCC(=O)O)C(=O)N[C@@H](Cc1ccc(O)cc1)C(=O)N[C@@H](CC(=O)O)C(=O)N[C@@H](CCCNC(=N)N)C(=O)N[C@@H](CCCCN)C(=O)N[C@@H](Cc1ccccc1)C(=O)N[C@@H](CCCCN)C(=O)N[C@@H](CCCCN)C(=O)N[C@@H](CCCNC(=N)N)C(=O)O [IQ^F1658D] | 0.8 ± 0.5 | -5.9 ± 0.7 | weaker binding | – |
| CC(C)C[C@H](NC(=O)[C@H](Cc1ccccc1)NC(=O)[C@@H](NC(=O)[C@H](C)NC(=O)[C@H](Cc1ccc(O)cc1)NC(=O)[C@H](Cc1ccccc1)NC(=O)[C@H](CCCCN)NC(=O)CNC(=O)[C@@H](NC(=O)[C@@H](N)[C@@H](C)O)C(C)C)[C@@H](C)O)C(=O)N[C@@H](C)C(=O)N[C@@H](CCC(N)=O)C(=O)N[C@@H](CCC(=O)O)C(=O)N[C@@H](Cc1ccc(O)cc1)C(=O)N[C@@H](Cc1ccccc1)C(=O)N[C@@H](CCCNC(=N)N)C(=O)N[C@@H](CCCCN)C(=O)N[C@@H](Cc1ccccc1)C(=O)N[C@@H](CCCCN)C(=O)N[C@@H](CCCCN)C(=O)N[C@@H](CCCNC(=N)N)C(=O)O [IQ^I1654A] | – | – | weaker binding | – |
| apoCaM (Ca2+-free calmodulin) (from UniProt P0DP33 1-149) (natural protein) | – | – | – | 60 |

Source: PMC9764201, “Half-calcified calmodulin promotes basal activity and inactivation of the L-type calcium channel CaV1.2” (The Journal of Biological Chemistry, 2022)
